Experimental data reported in US20230313311A1, “METHOD OF ASSESSING THE CIRCADIAN RHYTHM OF A SUBJECT HAVING CANCER AND/OR ASSESSING A TIMING OF ADMINISTRATION OF A MEDICAMENT TO SAID SUBJECT HAVING CANCER” (priority 2020, published 2023).

Legend:
[1] = test system: SW480 colorectal cancer cells; settings: cited from earlier work; for effect of drug administration depending on time: control cells; for effect of drug administration depending on time after BMAL1 downregulation: core-clock gene BMAL1 downregulated
[2] = test system: BMAL1-Promoter activity in HCT116, SW480 and SW620 colon cancer cells; experiment: BMAL1-Promoter activity, live-cell bioluminescence recording over five days; assay type: cell-based, human; settings: treated vs control, n=3
Protocol: Here, the three cell lines were treated with several anti-cancer drugs, including WZB117, Oxaliplatin and cisplatin, and the rhythmic promoter activity of BMAL1 was measured over several days (FIG. 13). […] More specifically, HCT116, SW480 and SW620 colon cancer cells were treated with Oxaliplatin, Cisplatin and WZB117. BMAL1-Promoter activity was measured using live-cell bioluminescence recording over five days. Shown is one representative plot for the control (black) and the treated (grey dashed) condition, n=3.
BMAL1-Promoter activity was measured using live-cell bioluminescence recording over five days. Shown is one representative plot for the control (black) and the treated (grey) condition, n=3.

[3] = test system: mice; settings: among six mouse categories; treatment tolerability as output; cited from earlier work
[4] = test system: core-clock downregulated (shBMAL1, shNR1D1 and shPER2) HCT116 cancer cell lines; experiment: Cell proliferation measured using confluence after time-dependent treatment; assay type: cell-based, human; settings: 10 μM; treated at 18 h, 21 h and 24 h after cell synchronization; confluence over five days; n=3
Protocol: FIG. 15 illustrates how cell proliferation for an exemplified for a human cancer cell type is affected by Cisplatin treatment in a time-dependent manner;
In addition to the BMAL1 rhythmicity data, preliminary data were obtained pointing towards the differential regulation of cancer cell proliferation based on the timing of drug administration. […] Cell proliferation was measured using confluence over five days. n=3.

[5] = test system: AsPC1 cells; settings: SMAD4 deficient AsPC1; treated 17 h, 20 h, 23 h after synchronization; cited from earlier work
[6] = test system: Panc1 cells; settings: cited from earlier work

SMILES | effect of drug administration depending on time [1] | effect of drug administration depending on time after BMAL1 downregulation [1] | effect of drug application on rhythmicity of BMAL1 promoter activity [2] | other results
O=C(Oc1cccc(F)c1OC(=O)c1cccc(O)c1)c1cccc(O)c1 [WZB117] | time-dependent | this effect is lost | altered the rhythmicity of the core-clock gene BMAL1 | 
CCc1c2c(nc3ccc(OC(=O)N4CCC(N5CCCCC5)CC4)cc13)-c1cc3c(c(=O)n1C2)COC(=O)[C@]3(O)CC [Irinotecan] |  |  | alters BMAL1 rhythmic promoter activity | variation of optimal circadian timing along the 24 hours [3]: up to 8 hour
N.N.[Cl][Pt][Cl] [Cisplatin] |  |  | altered the rhythmicity of the core-clock gene BMAL1 | cell proliferation depending on timing of drug administration [4]: reduced cell proliferation for shNR1D1 and shPER2 cells, when cells were treated at 24 h after synchronization compared to the other time-points
O=C1[O][Pt]2([NH][C@@H]3CCCC[C@H]3[NH]2)[O]C1=O [Oxaliplatin] | time-dependent | this effect is lost | altered the rhythmicity of the core-clock gene BMAL1 | 
Nc1ccn([C@@H]2O[C@H](CO)[C@@H](O)C2(F)F)c(=O)n1 [gemcitabine] |  |  |  | response to time-dependent treatment [5]: this effect is not observed; differential drug response to different treatment time points after gene downregulation ([6]; Panc1 with downregulation of NR1D1 or SMAD4): the differential drug response to different treatment time points is impaired; response to time-dependent treatment ([6]; SMAD4 proficient Panc1, treated 17 h, 20 h, 23 h after synchronization): more resistant to treatment
